For this experiment, the target named is Cationic trypsin (Bos taurus). As to the kind of experiment: Inhibitory constant against bovine trypsin for general specificity against serine proteases.

Molecules are shown by their SMILES.

By Ki is commonly meant a dissociation constant, usually derived from enzyme kinetics or from competition with a known ligand. A low value points to tighter binding. On to `Cc1c(F)c(Oc2cccc(C(=N)N)c2)nc(Oc2cccc(C(N)=O)c2)c1F` [3-[6-(3-Carbamimidoyl-phenoxy)-3,5-difluoro-4-methyl-pyridin-2-yloxy]-benzamide], for which the Ki was > 5 µM.

The values above are taken from BindingDB's records for doi:10.1021/jm0200660 (Berlex Biosciences, 2002).
